In patent US8293266B2, “Paromomycin-supplemented feed stuff for turkey and use thereof for prophylaxis of histomoniasis, reduction of the horizontal spreading of histomoniasis, and for improved weight gain and feed conversion” (Huvepharma AD, priority 2007, dated 2012):
“Also recorded” adds a separate entry of the source.

Tests used:
[1] = system: histomoniasis; details: use through the whole growth cycle; cited from earlier work
[2] = system: histomoniasis; details: 200 and 400 ppm in broilers; cited from earlier work
[3] = system: Histomonas meleagridis strain HNA.CO. A.L1; experiment: Example 2: intracloacal Histomonas meleagridis challenge, seeder and contact birds, mortality and lesions; assay type: in vivo, turkey; details: lowest dose (250 ppm paromomycin sulphate), seeder birds mortality
[4] = system: histomoniasis; details: cited from earlier work
[5] = system: Histomonas meleagridis strain HNA.CO.A.L1; experiment: Example 1: turkeys inoculated intracloacally with Histomonas meleagridis, mortality and lesions; assay type: in vivo, turkey; details: low dose (500 ppm), mortality

SMILES: CC[C@@]1([C@@H]2O[C@@H]([C@H]3O[C@@](O)(CO)[C@H](C)C[C@@H]3C)C[C@@H]2C)CC[C@H]([C@]2(C)CC[C@]3(C[C@H](O)[C@@H](C)[C@@H]([C@@H](C)[C@@H](OC)[C@H](C)C(=O)O)O3)O2)O1 [monensin]
- effect with respect to histomoniasis [1]: no effect

SMILES: N#CC(c1ccc(Cl)cc1)c1c(Cl)cc(-n2ncc(=O)[nH]c2=O)cc1Cl (stereo not drawn) [diclasuril]
- effect with respect to histomoniasis [1]: no effect

SMILES: CC[C@@H](C(=O)[C@@H](C)[C@@H](O)[C@H](C)[C@@H]1O[C@@H]([C@@H](CC)C(=O)O)CC[C@@H]1C)[C@H]1O[C@]2(C=C[C@@H](O)[C@]3(CC[C@@](C)([C@H]4CC[C@](O)(CC)[C@H](C)O4)O3)O2)[C@H](C)C[C@@H]1C [salinomycin]
- effect with respect to histomoniasis [1]: no effect

SMILES: NC[C@@H]1O[C@H](O[C@H]2[C@@H](O)[C@H](O[C@@H]3[C@@H](O)[C@H](N)C[C@H](N)[C@H]3O[C@H]3O[C@H](CO)[C@@H](O)[C@H](O)[C@H]3N)O[C@@H]2CO)[C@H](N)[C@@H](O)[C@@H]1O [paromomycin]
- effect on mortality and lesion scoring [2]: no effect on both mortality and lesion scoring
- use in-vivo as chemotherapeutic agent in broiler chickens [2]: ineffective
- protection to infection [3]: significant protection
- side effects due to the use of paromomycin ([4]; 1000-2000 ppm in feed (dosage exceeding 1000 ppm)): certain toxicity effects; also recorded: lesions and hypertrophy of the liver
- mortality of infected birds ([4]; fed continuously at 1000-2000 ppm in feed): reduced the mortality of infected birds
- protection compared to the infected untreated group [5]: significant protection
